Data taken from paper PMC12749748, “Chemically-induced degradation of the endoplasmic-reticulum stress sensor IRE1 by a VHL-recruiting chimera” (Nature Communications, 2025).

What was measured:
AMO1 cells = assay: Global proteomics of protein depletion in AMO1 cells; type: cell-based; conditions: 1 µM, 4 h
Experimental: One milligram of protein lysate in denaturing buffer (8 M Urea, 20 mM HEPES, pH 8.0) was reduced (5 mM dithiothreitol (DTT), 45 min at 37 °C), alkylated (15 mM iodoacetamide (IAA), 20 min at room temperature in the dark), and quenched (5 mM DTT, 15 min at room temperature in the dark). Proteins were pelleted by chloroform-methanol precipitation. The resulting pellet was resuspended in denaturing buffer, diluted to 4 M Urea, and digested for 4 h at 37 °C with lysyl-endopeptidase (Wako) at an enzyme to protein ratio of 1:100. The sample was further diluted to 1.3 M Urea and subjected to overnight enzymatic digestion at 37 °C with sequencing grade trypsin (Promega, enzyme: protein ratio = 1:50). Resultant peptides were acidified with 20% Trifluoroacetic acid (TFA, 1% final concentration), centrifuged at 18,000 × g for 15 min, and desalted using a Sep-Pak C18 column (Waters). […]
For the global proteome, LC-MS/MS analysis was performed by injecting 1 μL of each fraction on an Orbitrap Eclipse mass spectrometer (Thermo Fisher) coupled to a Dionex Ultimate 3000 RSLC (Thermo Fisher) employing a 25 cm IonOpticks Aurora Series column (IonOpticks, Parkville, Australia) with a gradient of 2% to 30% buffer B (98% ACN, 2% H2O with 0.1% FA, flow rate = 300 nL/min). Global proteome samples were analyzed with a total run time of 95 min. […]

IRE1 = IRE1 (Homo sapiens, UniProt O75460); assay: IP-IB of K48-linked ubiquitination of endogenous IRE1 in AMO1 cells; type: cell-based; design: Immunoblot (IB) analysis of endogenous IRE1 depletion in AMO1 cells; endogenous in cells; host or cells: AMO1; conditions: 3 µM, 2 h, compared to DMSO
IRE1, sequence (O75460 19-977): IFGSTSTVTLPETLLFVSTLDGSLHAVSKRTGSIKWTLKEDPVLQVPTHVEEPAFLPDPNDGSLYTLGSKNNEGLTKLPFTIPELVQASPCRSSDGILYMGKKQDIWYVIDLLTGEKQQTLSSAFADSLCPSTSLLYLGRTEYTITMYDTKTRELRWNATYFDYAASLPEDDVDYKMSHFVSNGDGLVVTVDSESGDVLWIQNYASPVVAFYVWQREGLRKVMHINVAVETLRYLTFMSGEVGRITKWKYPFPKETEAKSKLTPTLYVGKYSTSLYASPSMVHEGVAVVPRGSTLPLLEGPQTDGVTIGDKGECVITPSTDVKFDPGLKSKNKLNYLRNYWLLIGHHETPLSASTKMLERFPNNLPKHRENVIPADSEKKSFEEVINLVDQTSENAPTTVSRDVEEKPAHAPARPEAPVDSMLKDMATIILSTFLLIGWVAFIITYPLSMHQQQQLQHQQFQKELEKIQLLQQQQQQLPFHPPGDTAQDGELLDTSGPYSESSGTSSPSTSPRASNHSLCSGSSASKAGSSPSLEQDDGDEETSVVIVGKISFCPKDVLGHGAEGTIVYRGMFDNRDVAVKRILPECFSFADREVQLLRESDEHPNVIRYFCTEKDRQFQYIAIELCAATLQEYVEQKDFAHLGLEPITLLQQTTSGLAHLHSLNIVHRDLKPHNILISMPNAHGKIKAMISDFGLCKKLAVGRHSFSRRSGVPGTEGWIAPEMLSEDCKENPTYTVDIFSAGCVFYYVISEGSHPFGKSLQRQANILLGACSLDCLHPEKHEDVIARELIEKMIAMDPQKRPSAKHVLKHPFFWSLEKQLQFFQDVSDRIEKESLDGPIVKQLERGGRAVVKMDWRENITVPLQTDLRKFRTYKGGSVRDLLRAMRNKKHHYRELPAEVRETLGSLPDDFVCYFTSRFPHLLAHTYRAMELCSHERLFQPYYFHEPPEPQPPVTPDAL
Experimental: Cells were lysed in buffer containing 20 mM HEPES 7.2, 150 mM NaCl, and 1% Triton X-100, supplemented with fresh protease and phosphatase inhibitors (Invitrogen, #78440), cleared by centrifugation at 12,000 × g for 10 min, and analyzed by BCA protein assay (Thermo Fisher Scientific, #23227). Equal protein amounts were loaded, separated by SDS-PAGE, electrotransferred to nitrocellulose membranes using the iBLOT2 system (Invitrogen), and blocked in 5% nonfat milk solution for 60 min. Membranes were probed with primary antibodies at 1:1000 dilution in 5% milk at 4 °C overnight. Signal was detected using appropriate horseradish peroxidase (HRP)-conjugated secondary antibodies at 1:10,000 in 5% milk at room temperature for 1–2 h. Bands were visualized by the Azure 600 western blot imaging system (Azure Biosystems). For in vitro ubiquitination assays performed with Me-Ub, bands were visualized by the Odyssey CLx Imager (LI‑COR) after incubating the blots with the IRDye 800CW (LI-COR) secondary antibodies at 1:10,000 in Intercept Blocking Buffer (LI-COR) at room temperature for 1–2 h.
IRE1.LD antibodies were conjugated to agarose beads using the AminoLink® Plus Immobilization Kit (Thermo Fisher, #44894). […]

Cc1ncsc1-c1ccc(CNC(=O)[C@@H]2C[C@@H](O)CN2C(=O)[C@@H](NC(=O)CCCCN2CCN([C@H]3CC[C@H](Nc4ncc5ccc(=O)n(C(C)C)c5n4)CC3)CC2)C(C)(C)C)cc1 [G6374]
protein depletion by global proteomics, G6374 versus G2642 (AMO1 cells): IRE1 as the most substantially and significantly depleted protein target | K48-linked ubiquitination of endogenous IRE1 (IRE1): significant increase in K48-linked ubiquitination of endogenous IRE1
